Experimental data reported in the NIST ThermoML archive (doi:10.1021/je300945r).
± gives the expanded uncertainty stated by the source.

Structure (SMILES): F/C=C/C(F)(F)F [trans-1,3,3,3-tetrafluoropropene]
- mass density (242.91 K, 56.6 kPa, Gas, isochoric method): 3.322 ± 0.11 kg/m3
- mass density (242.91 K, 56.7 kPa, Gas, isochoric method): 3.322 ± 0.11 kg/m3
- mass density (252.89 K, 59.4 kPa, Gas, isochoric method): 3.322 ± 0.11 kg/m3
- mass density (252.9 K, 59.4 kPa, Gas, isochoric method): 3.322 ± 0.11 kg/m3
- mass density (262.9 K, 62 kPa, Gas, isochoric method): 3.311 ± 0.11 kg/m3
- mass density (262.91 K, 61.9 kPa, Gas, isochoric method): 3.311 ± 0.11 kg/m3
- mass density (262.94 K, 139.4 kPa, Gas, isochoric method): 7.692 ± 0.11 kg/m3
- mass density (262.95 K, 139.4 kPa, Gas, isochoric method): 7.692 ± 0.11 kg/m3
- mass density (272.84 K, 64.4 kPa, Gas, isochoric method): 3.311 ± 0.11 kg/m3
- mass density (272.85 K, 64.4 kPa, Gas, isochoric method): 3.311 ± 0.11 kg/m3
- mass density (272.87 K, 145.5 kPa, Gas, isochoric method): 7.634 ± 0.11 kg/m3
- mass density (282.6 K, 151.4 kPa, Gas, isochoric method): 7.634 ± 0.11 kg/m3
- mass density (282.63 K, 66.9 kPa, Gas, isochoric method): 3.311 ± 0.1 kg/m3
- mass density (282.66 K, 238.8 kPa, Gas, isochoric method): 12.5 ± 0.11 kg/m3
- mass density (283.14 K, 1620 kPa, Liquid, Vibrating tube method): 1214.3 ± 1.6 kg/m3
- mass density (283.14 K, 2638 kPa, Liquid, Vibrating tube method): 1218.5 ± 1.6 kg/m3
- mass density (283.14 K, 3662 kPa, Liquid, Vibrating tube method): 1222.4 ± 1.6 kg/m3
- mass density (283.14 K, 5710 kPa, Liquid, Vibrating tube method): 1229.8 ± 1.6 kg/m3
- mass density (283.14 K, 6721 kPa, Liquid, Vibrating tube method): 1233.2 ± 1.6 kg/m3
- mass density (283.14 K, 7725 kPa, Liquid, Vibrating tube method): 1236.6 ± 1.6 kg/m3
- mass density (283.14 K, 11789 kPa, Liquid, Vibrating tube method): 1249.5 ± 1.6 kg/m3
- mass density (283.14 K, 12805 kPa, Liquid, Vibrating tube method): 1252.4 ± 1.6 kg/m3
- mass density (283.14 K, 15859 kPa, Liquid, Vibrating tube method): 1261.2 ± 1.7 kg/m3
- mass density (283.14 K, 16870 kPa, Liquid, Vibrating tube method): 1263.9 ± 1.7 kg/m3
- mass density (283.14 K, 18876 kPa, Liquid, Vibrating tube method): 1269.4 ± 1.7 kg/m3
- mass density (283.14 K, 20909 kPa, Liquid, Vibrating tube method): 1274.5 ± 1.7 kg/m3
- mass density (283.15 K, 619 kPa, Liquid, Vibrating tube method): 1210.5 ± 1.6 kg/m3
- mass density (283.15 K, 4689 kPa, Liquid, Vibrating tube method): 1226.1 ± 1.6 kg/m3
- mass density (283.15 K, 8745 kPa, Liquid, Vibrating tube method): 1240 ± 1.6 kg/m3
- mass density (283.15 K, 9760 kPa, Liquid, Vibrating tube method): 1243.2 ± 1.6 kg/m3
- mass density (283.15 K, 10765 kPa, Liquid, Vibrating tube method): 1246.5 ± 1.6 kg/m3
- mass density (283.15 K, 13827 kPa, Liquid, Vibrating tube method): 1255.7 ± 1.7 kg/m3
- mass density (283.15 K, 14841 kPa, Liquid, Vibrating tube method): 1258.4 ± 1.7 kg/m3
- mass density (283.15 K, 17875 kPa, Liquid, Vibrating tube method): 1266.7 ± 1.7 kg/m3
- mass density (283.15 K, 19891 kPa, Liquid, Vibrating tube method): 1272 ± 1.7 kg/m3
- mass density (283.15 K, 21921 kPa, Liquid, Vibrating tube method): 1277.1 ± 1.7 kg/m3
- mass density (283.15 K, 22932 kPa, Liquid, Vibrating tube method): 1279.6 ± 1.7 kg/m3
- mass density (283.15 K, 23948 kPa, Liquid, Vibrating tube method): 1281.9 ± 1.7 kg/m3
- mass density (283.15 K, 24959 kPa, Liquid, Vibrating tube method): 1284.4 ± 1.7 kg/m3
- mass density (283.15 K, 25966 kPa, Liquid, Vibrating tube method): 1286.7 ± 1.7 kg/m3
- mass density (283.15 K, 26982 kPa, Liquid, Vibrating tube method): 1289.1 ± 1.7 kg/m3
- mass density (283.15 K, 27984 kPa, Liquid, Vibrating tube method): 1291.3 ± 1.7 kg/m3
- mass density (283.15 K, 28987 kPa, Liquid, Vibrating tube method): 1293.4 ± 1.7 kg/m3
- mass density (283.15 K, 30001 kPa, Liquid, Vibrating tube method): 1295.7 ± 1.7 kg/m3
- mass density (283.15 K, 31009 kPa, Liquid, Vibrating tube method): 1297.8 ± 1.7 kg/m3
- mass density (283.15 K, 32017 kPa, Liquid, Vibrating tube method): 1300.1 ± 1.7 kg/m3
- mass density (283.15 K, 33020 kPa, Liquid, Vibrating tube method): 1302.1 ± 1.7 kg/m3
- mass density (283.15 K, 34022 kPa, Liquid, Vibrating tube method): 1304.2 ± 1.7 kg/m3
- mass density (292.54 K, 157.2 kPa, Gas, isochoric method): 7.634 ± 0.1 kg/m3
- mass density (292.56 K, 248.7 kPa, Gas, isochoric method): 12.5 ± 0.11 kg/m3
- mass density (292.56 K, 248.8 kPa, Gas, isochoric method): 12.5 ± 0.11 kg/m3
- mass density (292.76 K, 366.1 kPa, Gas, isochoric method): 19.231 ± 0.12 kg/m3
- mass density (292.83 K, 415.4 kPa, Gas, isochoric method): 22.222 ± 0.12 kg/m3
- mass density (293.14 K, 778 kPa, Liquid, Vibrating tube method): 1179.9 ± 1.6 kg/m3
- mass density (293.14 K, 1644 kPa, Liquid, Vibrating tube method): 1184.2 ± 1.6 kg/m3
- mass density (293.14 K, 2650 kPa, Liquid, Vibrating tube method): 1188.7 ± 1.6 kg/m3
- mass density (293.14 K, 4727 kPa, Liquid, Vibrating tube method): 1197.6 ± 1.6 kg/m3
- mass density (293.14 K, 5738 kPa, Liquid, Vibrating tube method): 1201.8 ± 1.6 kg/m3
- mass density (293.14 K, 6755 kPa, Liquid, Vibrating tube method): 1205.9 ± 1.6 kg/m3
- mass density (293.14 K, 7761 kPa, Liquid, Vibrating tube method): 1209.7 ± 1.6 kg/m3
- mass density (293.14 K, 8772 kPa, Liquid, Vibrating tube method): 1213.4 ± 1.6 kg/m3
- mass density (293.14 K, 10798 kPa, Liquid, Vibrating tube method): 1220.7 ± 1.6 kg/m3
- mass density (293.14 K, 12817 kPa, Liquid, Vibrating tube method): 1227.5 ± 1.6 kg/m3
- mass density (293.14 K, 13830 kPa, Liquid, Vibrating tube method): 1230.8 ± 1.6 kg/m3
- mass density (293.14 K, 15838 kPa, Liquid, Vibrating tube method): 1236.9 ± 1.6 kg/m3
- mass density (293.14 K, 16853 kPa, Liquid, Vibrating tube method): 1240.1 ± 1.7 kg/m3
- mass density (293.14 K, 17857 kPa, Liquid, Vibrating tube method): 1243 ± 1.7 kg/m3
- mass density (293.14 K, 20900 kPa, Liquid, Vibrating tube method): 1251.6 ± 1.7 kg/m3
- mass density (293.14 K, 21921 kPa, Liquid, Vibrating tube method): 1254.3 ± 1.7 kg/m3
- mass density (293.14 K, 22938 kPa, Liquid, Vibrating tube method): 1257.2 ± 1.7 kg/m3
- mass density (293.14 K, 23953 kPa, Liquid, Vibrating tube method): 1259.7 ± 1.7 kg/m3
- mass density (293.14 K, 24957 kPa, Liquid, Vibrating tube method): 1262.3 ± 1.7 kg/m3
- mass density (293.14 K, 31009 kPa, Liquid, Vibrating tube method): 1277.1 ± 1.7 kg/m3
- mass density (293.14 K, 32027 kPa, Liquid, Vibrating tube method): 1279.3 ± 1.7 kg/m3
- mass density (293.15 K, 69.4 kPa, Gas, isochoric method): 3.311 ± 0.099 kg/m3
- mass density (293.15 K, 3682 kPa, Liquid, Vibrating tube method): 1193.3 ± 1.6 kg/m3
- mass density (293.15 K, 9788 kPa, Liquid, Vibrating tube method): 1217.1 ± 1.6 kg/m3
- mass density (293.15 K, 11799 kPa, Liquid, Vibrating tube method): 1223.9 ± 1.6 kg/m3
- mass density (293.15 K, 14835 kPa, Liquid, Vibrating tube method): 1233.8 ± 1.6 kg/m3
- mass density (293.15 K, 18879 kPa, Liquid, Vibrating tube method): 1246.2 ± 1.7 kg/m3
- mass density (293.15 K, 19891 kPa, Liquid, Vibrating tube method): 1248.9 ± 1.7 kg/m3
- mass density (293.15 K, 25973 kPa, Liquid, Vibrating tube method): 1264.9 ± 1.7 kg/m3
- mass density (293.15 K, 26985 kPa, Liquid, Vibrating tube method): 1267.4 ± 1.7 kg/m3
- mass density (293.15 K, 27991 kPa, Liquid, Vibrating tube method): 1270 ± 1.7 kg/m3
- mass density (293.15 K, 28993 kPa, Liquid, Vibrating tube method): 1272.4 ± 1.7 kg/m3
- mass density (293.15 K, 30001 kPa, Liquid, Vibrating tube method): 1274.8 ± 1.7 kg/m3
- mass density (293.15 K, 33027 kPa, Liquid, Vibrating tube method): 1281.7 ± 1.7 kg/m3
- mass density (293.15 K, 34035 kPa, Liquid, Vibrating tube method): 1284 ± 1.7 kg/m3
- mass density (293.16 K, 69.4 kPa, Gas, isochoric method): 3.311 ± 0.099 kg/m3
- mass density (302.54 K, 258.5 kPa, Gas, isochoric method): 12.5 ± 0.11 kg/m3
- mass density (302.54 K, 258.6 kPa, Gas, isochoric method): 12.5 ± 0.11 kg/m3
- mass density (302.67 K, 71.8 kPa, Gas, isochoric method): 3.311 ± 0.096 kg/m3
- mass density (302.67 K, 162.7 kPa, Gas, isochoric method): 7.634 ± 0.099 kg/m3
- mass density (302.69 K, 162.7 kPa, Gas, isochoric method): 7.634 ± 0.099 kg/m3
- mass density (302.78 K, 381.8 kPa, Gas, isochoric method): 19.231 ± 0.11 kg/m3
